Measurements published in PubChem BioAssay (NCI).
“And” between values parts separate entries of the source, which are not always exact repeats. Identical values can stand only once.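 Tested at 5 concentrations; 48 h exposure; 96-well plates; endpoints linearly interpolated, else capped at highest concentration. GI50 is the concentration that inhibits growth by half. TGI: total growth inhibition.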

Key:
Experiment in all cases: DTP human tumour cell line panel, 48 h
[1] = tested on: DU-145 prostate
[2] = tested on: HOP-92 NSCLC
[3] = tested on: IGROV1 ovarian
[4] = tested on: NCI-H460 lung
[5] = tested on: NCI-H522 lung
[6] = tested on: OVCAR-3 ovarian
[7] = tested on: OVCAR-5 ovarian
[8] = tested on: PC-3 prostate
[9] = tested on: SNB-75 CNS
[10] = tested on: UO-31 renal

Row | Compound | GI50 [1] | TGI [1] | GI50 [2] | TGI [2] | GI50 [3] | TGI [3] | GI50 [4] | TGI [4] | GI50 [5] | TGI [5] | GI50 [6] | TGI [6] | GI50 [7] | TGI [7] | GI50 [8] | TGI [8] | GI50 [9] | TGI [9] | GI50 [10] | TGI [10]
1 | CCN1CCN(c2nc(NCCCNc3ccnc4cc(Cl)ccc34)c3ccccc3n2)CC1 | 3.05 µM | 13.2 µM | 1.78 µM | 4.64 µM | 2.36 µM | 10.9 µM | 2.14 µM | 5.1 µM | 2.92 µM | 6.14 µM | 2.9 µM | 10.3 µM | 3 µM | 11 µM | 3.09 µM | 14.5 µM | 1.78 µM | 6.88 µM | 1.49 µM | 2.97 µM
2 | Clc1ccccc1C(c1ccccc1)(c1ccccc1)n1ccnc1 | 4.87 µM | 17.2 µM and 39.6 µM | 1.57 µM | 4.3 µM and 37.9 µM | 3.35 µM | 18.7 µM and 22.9 µM | 2.9 µM | 9.53 µM and 29.8 µM | 2.66 µM | 8.89 µM and 18.9 µM | 1.78 µM | 4.41 µM and 17.6 µM | 4.05 µM | 15.5 µM and 29.8 µM | 1.67 µM | 12.4 µM and 20.2 µM | 2.14 µM | 8.72 µM and 35.5 µM | 1.45 µM | 9 µM and 19.8 µM
3 | COc1ccc(C(=S)N2CCN(c3cccc(Cl)c3)CC2)cc1 | > 100 µM | > 100 µM | 17.2 µM | > 100 µM | 58.8 µM | > 100 µM | > 100 µM | > 100 µM | 15.3 µM | > 100 µM | > 100 µM | > 100 µM | > 100 µM | > 100 µM | 38.6 µM | > 100 µM | 45.1 µM | > 100 µM | 43.3 µM | > 100 µM
4 | CN1CCN(CC#Cc2cccc(C(=O)c3cnn(-c4ccc(F)cc4)c3N)c2)CC1 | > 25 µM | > 25 µM | 15.2 µM | > 25 µM | > 25 µM | > 25 µM | > 25 µM | > 25 µM | > 25 µM | > 25 µM | > 25 µM | > 25 µM | > 25 µM | > 25 µM | > 25 µM | > 25 µM | > 25 µM | > 25 µM | > 25 µM | > 25 µM
5 | Nc1n[nH]c2ccc([C@@H]3Nc4ccc5[nH]ncc5c4[C@H]4[C@H]5CCC(C5)[C@H]43)cc12 | 0.445 µM | > 28.3 µM | 1.45 µM | 14.9 µM | 0.513 µM | > 51.6 µM | 0.358 µM | 10.9 µM | 0.31 µM | 3.57 µM | 0.23 µM | 0.64 µM | 0.572 µM | 49.6 µM | 0.397 µM | 23 µM | 0.16 µM | 11.3 µM | 0.698 µM | 46.5 µM
6 | CCn1c(-c2nonc2N)nc2c(C#CCN)ncc(OCCCN)c21 | > 25 µM | > 25 µM | 4.64 µM | > 25 µM | > 25 µM | > 25 µM | > 25 µM | > 25 µM | > 25 µM | > 25 µM | > 25 µM | > 25 µM | > 25 µM | > 25 µM | > 25 µM | > 25 µM | > 24.2 µM | > 25 µM | > 25 µM | > 25 µM
7 | COc1ccc(NC(=O)Nc2n[nH]c3ccccc23)cc1 | > 100 µM | > 100 µM | > 100 µM | > 100 µM | > 100 µM | > 100 µM | > 100 µM | > 100 µM | > 100 µM | > 100 µM | > 100 µM | > 100 µM | > 100 µM | > 100 µM | > 100 µM | > 100 µM | > 100 µM | > 100 µM | > 100 µM | > 100 µM
8 | CCCCCCCCCCCCCC(=S)NCCCC[C@H](NC(=O)OCc1ccccc1)C(=O)Nc1ccccc1 | 6.78 µM | > 100 µM | 2.3 µM | 8.25 µM | 5.87 µM | > 100 µM | 4.02 µM | > 100 µM | 2.84 µM | 31.2 µM | 3.52 µM | > 100 µM | 10.3 µM | > 100 µM | 2.58 µM | > 100 µM | 3.85 µM | > 100 µM | 2.39 µM | > 100 µM
9 | COc1cccc(/C=C/C(=O)c2cc3c(N)c(C(=O)Nc4ccccc4C)sc3nc2C)c1 | 1.32 µM | 4.08 µM | 0.823 µM | 2.72 µM | 1.03 µM | 2.44 µM | 1.1 µM | 2.53 µM | 1.07 µM | 3.38 µM | 1.13 µM | 2.44 µM | 1.21 µM | 3.76 µM | 1.69 µM | 8.3 µM | 1.05 µM | 3.15 µM | 0.863 µM | 1.72 µM
10 | CC(C)(C)OC(=O)NC(Cc1ccccc1)C(=O)OCN1C(=O)C2C3C=CC(C2C1=O)C1C2C(=O)N(COC(=O)C(Cc4ccccc4)NC(=O)OC(C)(C)C)C(=O)C2C31 (stereo unspecified) |  | > 100 µM |  | > 100 µM |  | 97.4 µM |  | > 100 µM |  | 85 µM |  | > 100 µM |  | > 100 µM |  | > 100 µM |  | 58.9 µM |  | > 87.9 µM
11 | CC(=O)Nc1cccc(-n2c(=O)n(C3CC3)c(=O)c3c(Nc4ccc(I)cc4F)n(C)c(=O)c(C)c32)c1 | 3.36 µM and > 4.01 µM | 93.9 µM and > 10 µM | < 0.01 µM and 0.011 µM |  | 0.034 µM and 0.0221 µM | > 81.6 µM | 3.19 µM and > 4.26 µM | > 93.6 µM | 3.79 µM and > 2.33 µM | 22 µM and > 10 µM | 8.33 µM and > 10 µM | 60.9 µM and > 10 µM | < 0.01 µM and 0.00472 µM | 29.8 µM and > 10 µM | 6.33 µM and > 10 µM | 46.3 µM and > 10 µM | 3.2 µM and > 2.79 µM | > 55.2 µM | 0.141 µM and 0.0654 µM | 10.1 µM and > 10 µM
12 | COc1cc(-n2cc(-c3ccc(Cl)c(Cl)c3)nc2SCc2ccccc2)cc(OC)c1OC | > 100 µM | > 100 µM | > 100 µM | > 100 µM | > 100 µM | > 100 µM | > 100 µM | > 100 µM | 44.8 µM | > 100 µM | > 100 µM | > 100 µM | > 100 µM | > 100 µM | 38.9 µM | > 100 µM | > 100 µM | > 100 µM | > 100 µM | > 100 µM
13 | CC(C)(C)c1cc(O)c(O)c(C(C)(C)C)c1 | 4.6 µM | 15.8 µM | 1.36 µM | 4.6 µM | 2.56 µM | 5.27 µM | 3 µM | 10 µM | 1.77 µM | 3.29 µM | 1.93 µM | 3.38 µM | 11.1 µM | 23.3 µM | 3.55 µM | 15.9 µM | 4.86 µM | 19 µM | 2.15 µM | 4.98 µM
14 | Oc1ccccc1/C=N/Nc1ccc2ccccc2n1 | 6.53 µM | > 100 µM | 4.47 µM | 42.5 µM | 3.18 µM | 12.3 µM | 3.38 µM | 20.3 µM | 2.36 µM | 9.41 µM | 2.82 µM | 13.8 µM | 8.31 µM | > 100 µM | 4.5 µM | > 100 µM | 2.01 µM | 20.4 µM | 1.17 µM | 35.6 µM
15 | CN=C(N)N/N=C(\c1ccccc1)c1ccc(Br)cc1 | 0.366 µM | 10.5 µM | 0.3 µM | 2.9 µM | 0.629 µM | 17.1 µM | 0.355 µM | 9.05 µM | 0.21 µM | 0.616 µM | 0.29 µM | 2.55 µM | 0.494 µM | 5.62 µM | 0.402 µM | 11 µM | 0.387 µM | 6.51 µM | 0.519 µM | 6.28 µM
16 | COC(=O)C(=O)CC(=O)CCn1ncc(Cl)c(Cl)c1=O | 18.3 µM | 35 µM |  | 28.2 µM |  | 33.4 µM |  | 32.3 µM |  | 7.35 µM |  | 17.8 µM |  | 34.9 µM | 14.5 µM | 37.2 µM |  | 35.6 µM |  | 34.7 µM
17 | C[C@@H]1CC[C@@H]2[C@@H]1[C@H](OC(=O)/C=C/c1ccccc1)[C@]1(c3ccccc3)C[C@@H](OC(=O)CO)[C@@]2(C)O1 | 15.9 µM | 33.8 µM | 6.52 µM | 20.1 µM | 17 µM | 44.5 µM | 16.3 µM | 38.6 µM | 13.2 µM | 30 µM | 13.3 µM | 27 µM | 15.5 µM | 34.5 µM | 3.67 µM | 18.9 µM | 11.6 µM | 37.9 µM | 0.154 µM | 0.305 µM
18 | Cc1nn(-c2ccc(S(=O)(=O)[O-])cc2)c([O-])c1N=[N+](C)c1ccc(-c2ccc(N=Nc3ccc4c(S(=O)(=O)[O-])cc(S(=O)(=O)[O-])c(N)c4c3[O-])c([O-])c2)cc1[O-].[Cu+2].[Cu+2].[Na+] | > 100 µM | > 100 µM | > 100 µM | > 100 µM | > 100 µM | > 100 µM | > 100 µM | > 100 µM | > 100 µM | > 100 µM | > 100 µM | > 100 µM | > 100 µM | > 100 µM | > 100 µM | > 100 µM | > 100 µM | > 100 µM | 3.19 µM | > 100 µM
